Laboratory results from ChEMBL document CHEMBL5154881, “Discovery of First-in-Class TAK1-MKK3 Protein-Protein Interaction (PPI) Inhibitor (R)-STU104 for the Treatment of Ulcerative Colitis through Modulating TNF-α Production” (J Med Chem, 2022).

Assays:
P-gp (human) = test: Apparent permeability in dog MDCK-MDR1 cells transfected with human P-gp; type: ADME, cell-based, Canis lupus familiaris
Mus musculus [1] = test: Antiinflammatory activity against DSS-induced C57BL/6 mouse model of acute ulcerative colitis assessed as inhibition ratio of IL-1beta protein expression at 1 mg/kg, IG via gavage measured after 7 days by ELISA relative to control; type: functional; set-up: scale not given: the % may be the effect or the level left; conditions: time 7 day
Mus musculus [2] = test: Antiinflammatory activity against DSS-induced C57BL/6 mouse model of acute ulcerative colitis assessed as inhibition ratio of IL-6 mRNA expression in colon tissue at 10 mg/kg, IG via gavage measured after 7 days by RT-qPCR analysis relative to control; type: functional; set-up: scale not given: the % may be the effect or the level left; conditions: time 7 day
Mus musculus [3] = test: Anti-ulcerative colitis activity in IL-10-/- C57BL/6 mouse model of ulcerative colitis assessed as body weight recovery ratio at 3 mg/kg, IG via gavage for 8 weeks and measured everyday relative to control; type: functional
Mus musculus [4] = test: Anti-ulcerative colitis activity in IL-10-/- C57BL/6 mouse model of ulcerative colitis assessed as colon length recovery ratio at 10 mg/kg, IG via gavage for 8 weeks relative to control; type: functional
Mus musculus [5] = test: Antiinflammatory activity against IL-10-/- C57BL/6 mouse model of ulcerative colitis assessed as inhibition ratio of TNF-alpha mRNA expression in colon tissue at 10 mg/kg, IG via gavage and measured after 8 weeks by RT-qPCR analysis relative to control; type: functional; set-up: scale not given: the % may be the effect or the level left
Mus musculus [6] = test: Antiinflammatory activity against IL-10-/- C57BL/6 mouse model of acute ulcerative colitis assessed as decrease in serum TNF-alpha levels administered intragastrically via gavage measured after 8 weeks by ELISA; type: functional, organism-based; conditions: dose 3-10 mg/kg, route ig, DDE = dose-dependent effect

Which results are given for `COc1ccc([C@H]2CC(=O)c3cc(OC)cc(OC)c32)cc1`?
Papp (P-gp (human)): 23.3 ×10⁻⁶ cm/s; Activity (Mus musculus [1]): 46.9%; Activity (Mus musculus [2]): 76%; Activity (Mus musculus [3]): 14.8%; Activity (Mus musculus [4]): 41.2%; Activity (Mus musculus [5]): 68.5%; Activity (Mus musculus [6]): Dde
